In the supplement of paper PMC10307832:

Experiments:
Test in all cases: relative viability (nuclei count vs DMSO), 5 days (fraction); higher = more cells survive
[1] = compound: CC1=CC(=NN1)NC2=CC(=NC(=N2)/C=C/C3=CC=CC=C3)N4CCN(CC4)C + Nc1nc2[nH]cc(CCc3ccc(C(=O)N[C@@H](CCC(=O)O)C(=O)O)cc3)c2c(=O)[nH]1 [Pemetrexed] (partner 0.2 µM)
Procedure, shortened: (§1)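 Lung cancer cell lines were seeded in 1536-well plates and dosed by pin tool the next day, with either a single drug or a fixed anchor-drug dose combined with five library-drug doses (not always all listed) spaced in √10 steps. Five days later, one step fixed the cells and stained their nuclei (final 0.05% Triton X-100, 1% formaldehyde, 1 ug/ml Hoechst), and nuclei were counted on 4× images. Relative viability is the nuclei count in treated wells divided by the count in vehicle wells, and each value is the median of duplicate plates.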

Obatoclax + Bortezomib = compound: COC1=CC(c2cc3ccccc3[nH]2)=N/C1=C\c1[nH]c(C)cc1C [Obatoclax] + CC(C)C[C@H](NC(=O)[C@H](Cc1ccccc1)NC(=O)c1cnccn1)B(O)O [Bortezomib] (partner 0.002 µM)
Procedure, shortened: as §1

Bortezomib + Crizotinib = compound: CC(C)C[C@H](NC(=O)[C@H](Cc1ccccc1)NC(=O)c1cnccn1)B(O)O [Bortezomib] + C[C@@H](Oc1cc(-c2cnn(C3CCNCC3)c2)cnc1N)c1c(Cl)ccc(F)c1Cl [Crizotinib] (partner 1 µM)
Procedure, shortened: as §1

[2] = compound: CC1=CC(=NN1)NC2=CC(=NC(=N2)/C=C/C3=CC=CC=C3)N4CCN(CC4)C + Cc1nc(Nc2ncc(C(=O)Nc3c(C)cccc3Cl)s2)cc(N2CCN(CCO)CC2)n1 [Dasatinib] (partner 0.075 µM)
Procedure, shortened: as §1

Cell Line: NCI-H650
- relative viability ([1]; first compound 0.08 µM): 1.01
- relative viability ([1]; first compound 0.253 µM): 1.08
- relative viability ([1]; first compound 0.8 µM): 1.01
- relative viability ([1]; first compound 2.53 µM): 0.727
- relative viability ([1]; first compound 8 µM): 0.307
- relative viability (Obatoclax + Bortezomib; first compound 0.01 µM): 0.795
- relative viability (Obatoclax + Bortezomib; first compound 0.03162 µM): 0.732
- relative viability (Obatoclax + Bortezomib; first compound 0.1 µM): 0.455
- relative viability (Obatoclax + Bortezomib; first compound 0.3162 µM): 0.504
- relative viability (Obatoclax + Bortezomib; first compound 1 µM): 0.337
- relative viability (Bortezomib + Crizotinib; first compound 0.000632 µM): 0.753
- relative viability (Bortezomib + Crizotinib; first compound 0.002 µM): 0.584
- relative viability (Bortezomib + Crizotinib; first compound 0.006325 µM): 0.25
- relative viability (Bortezomib + Crizotinib; first compound 0.02 µM): 0.177
- relative viability ([2]; first compound 0.253 µM): 0.507
- relative viability ([2]; first compound 0.8 µM): 0.517
- relative viability ([2]; first compound 2.53 µM): 0.352
- relative viability ([2]; first compound 8 µM): 0.195
